Active and inactive are the calls of the source. The rule behind the calls is not given here.

Series [1] is described as follows: Fluorescent property of compound in PBS at pH 7.4 assessed as excitation wavelength by microplate reader analysis. The class given is physicochemical. As to conditions: buffer.
A short description of series [2]: Drug uptake in human MCF7 cells assessed as fluorescence emission by fluorescence microscopic analysis. The class given is ADME, cell-based.
Series [3] in a line: Drug uptake in HEK293 cells assessed as fluorescence emission by fluorescence microscopic analysis. The class given is ADME, cell-based. As to conditions: human.
Series [4] is described as follows: Fluorescent property of compound in PBS at pH 7.4 assessed as emission wavelength by microplate reader analysis. As to conditions: buffer. The class given is physicochemical.
The test system of series [5] is MCF7. Kind of series: Inhibition of cell migration in human MCF7 cells assessed as reduction in wound healing at 10 umol/L measured upto 72 hrs by scratch assay. The class given is functional. Particulars: MCF7, 72 h, dose 10 µmol/L.
The test system of series [6] is MCF7. Put plainly: Induction of apoptosis in human MCF7 cells assessed as decrease in c-Myc mRNA level at 1 to 10 umol/L after 48 hrs by qRT-PCR analysis. As to conditions: dose 1-10 µmol/L. The class given is functional, cell-based.
In series [7] the test system is MCF7. Put plainly: Induction of apoptosis in human MCF7 cells assessed as increase in AMPK mRNA level at 1 to 10 umol/L by qRT-PCR analysis. The class given is functional, cell-based. Particulars: dose 1-10 µmol/L, TDE = time-dependent effect. (Real-time PCR tracks product formation cycle by cycle.)
The test system of series [8] is MCF7. Kind of series: Induction of apoptosis in human MCF7 cells assessed as increase in AMPK mRNA level after 48 hrs by qRT-PCR analysis. The class given is functional, cell-based. Particulars: dose 1-10 µmol/L.
The test system of series [9] is MCF7. Put plainly: Induction of apoptosis in human MCF7 cells assessed as increase in Bcl-2 mRNA level at 1 to 10 umol/L after 48 hrs by qRT-PCR analysis. The class given is functional, cell-based. As to conditions: dose 1-10 µmol/L.
Series [10] deals with MCF7. Kind of series: Induction of apoptosis in human MCF7 cells assessed as increase in AMPK mRNA level at 1 to 10 umol/L after 48 hrs by qRT-PCR analysis. The class given is functional, cell-based. Particulars: dose 1-10 µmol/L.
Series [11] deals with MCF7. Put plainly: Induction of apoptosis in human MCF7 cells assessed as increase in Bcl-2 mRNA level at 1 to 10 umol/L by qRT-PCR analysis. The class given is functional, cell-based. Particulars: dose 1-10 µmol/L, TDE = time-dependent effect.
In series [12] the test system is MCF7. Put plainly: Induction of apoptosis in human MCF7 cells assessed as increase in early apoptotic cells after 48 hrs by flow cytometry analysis. The class given is functional, cell-based. Background: Flow cytometry measures light scatter and fluorescence of single cells or particles in a stream.
Series [13] has as its system MCF7. Kind of series: Induction of apoptosis in human MCF7 cells assessed as decrease in c-Myc mRNA level after 48 hrs by qRT-PCR analysis. The class given is functional, cell-based. As to conditions: dose 1-10 µmol/L.
Series [14] deals with MCF7. Kind of series: Induction of apoptosis in human MCF7 cells assessed as increase in Bcl-2 mRNA level after 48 hrs by qRT-PCR analysis. The class given is functional, cell-based. Particulars: dose 1-10 µmol/L.
For series [15], the system named is MCF7. Put plainly: Inhibition of cell migration in human MCF7 cells assessed as reduction in wound healing at 1 umol/L measured upto 72 hrs by scratch assay. As to conditions: dose 1.0 µmol/L. The class given is functional, cell-based.
Series [16] concerns MCF7. Put plainly: Induction of apoptosis in human MCF7 cells assessed as decrease in c-Myc mRNA level at 1 to 10 umol/L by qRT-PCR analysis. As to conditions: dose 1-10 µmol/L, TDE = time-dependent effect. The class given is functional, cell-based.
Series [17] can be described thus: Drug uptake in fixed human MCF7 cells nucleus assessed as fluorescence intensity in presence of BRD4 antibody by acridine orange dye based analysis. The class given is ADME, cell-based.
The nature of series [18]: Drug uptake in fixed human MCF7 cells nucleus assessed as fluorescence intensity in presence of BRD3 antibody by acridine orange dye based analysis. The class given is ADME, cell-based.
Series [19] concerns MCF7. Put plainly: Antiproliferative activity against human MCF7 cells assessed as reduction in cell viability by MTT assay. The class given is functional, cell-based. (Tetrazolium dyes change colour on reduction, which living cells bring about.)
The nature of series [20]: Drug uptake in BRD4 silenced fixed human MCF7 cells nucleus assessed as fluorescence intensity at 15 umol/L by acridine orange dye based analysis. The class given is ADME, cell-based. Particulars: mcf7, 15 µM, dose 15 µmol/L.
Series [21] in a line: Drug uptake in human MCF7 cells nucleus assessed as fluorescence intensity at 15 umol/L in presence of JQ1(+) by acridine orange dye based analysis. As to conditions: mcf7, 15 µM, dose 15 µmol/L. The class given is ADME, cell-based.
A short description of series [22]: Drug uptake in BRD4 silenced human MCF7 cells nucleus assessed as fluorescence intensity at 15 umol/L by acridine orange dye based analysis. As to conditions: mcf7, 15 µM, dose 15 µmol/L. The class given is ADME, cell-based.
Series [23] addresses Bromodomain-containing protein 3 (Homo sapiens) (UniProt Q15059). Kind of series: Binding affinity to recombinant BRD3 (unknown origin) in PBS at pH 7.4 assessed as increase in fluorescence intensity measured after 30 mins by TR-FRET assay. Particulars: dose 15.0 µmol/L.
A short description of series [24]: Drug uptake in human MCF7 cells xenografted nude mouse tumor tissue in presence of BRD4 antibody by immunofluorescence analysis. The class given is ADME, Neoplasm. Particulars: in vivo.
The target in series [25] is Bromodomain-containing protein 3 (Homo sapiens) (UniProt Q15059). Put plainly: Binding affinity to recombinant BRD3 (unknown origin) in PBS at pH 7.4 assessed as increase in fluorescence intensity at […] in presence of JQ1(+) by TR-FRET assay. As to conditions: time 30.0 min.
The target of series [26] is Bromodomain-containing protein 4 (Homo sapiens) (UniProt O60885). Put plainly: Binding affinity to recombinant BRD4 (unknown origin) in PBS at pH 7.4 assessed as increase in fluorescence intensity at […] in presence of JQ1(+) by TR-FRET assay. Particulars: time 30.0 min.
Series [27] can be described thus: Drug uptake in human MCF7 cells nucleus assessed as fluorescence intensity at 15 umol/L by acridine orange dye based analysis. The class given is ADME, cell-based. Particulars: mcf7, 15 µM, dose 15 µmol/L.
Series [28] is described as follows: Drug uptake in BRD3 silenced fixed human MCF7 cells nucleus assessed as fluorescence intensity at 15 umol/L by acridine orange dye based analysis. The class given is ADME, cell-based. Particulars: mcf7, 15 µM, dose 15 µmol/L.
The nature of series [29]: Drug uptake in human MCF7 cells xenografted mouse tumor tissue assessed as fluorescence intensity at 15 umol/L by acridine orange dye based fluorescence microscopic assay. The class given is ADME, cell-based. As to conditions: in vivo, 15 µM, dose 15 µmol/L.
A short description of series [30]: Drug uptake in BRD3 silenced human MCF7 cells nucleus assessed as fluorescence intensity at 15 umol/L by acridine orange dye based analysis. The class given is ADME, cell-based. Particulars: mcf7, 15 µM, dose 15 µmol/L.
A short description of series [31]: Drug uptake in human MCF7 cells xenografted nude mouse tumor tissue assessed as fluorescence intensity at 15 umol/L in presence of JQ1(+) by acridine orange dye based fluorescence microscopic assay. Particulars: in vivo, 15 µM, dose 15 µmol/L. The class given is ADME, Neoplasm.
The target in series [32] is Bromodomain-containing protein 4 (Homo sapiens) (UniProt O60885). Put plainly: Binding affinity to recombinant BRD4 (unknown origin) in PBS at pH 7.4 assessed as increase in fluorescence intensity measured after 30 mins by TR-FRET assay. Particulars: dose 0.4-3.1 µg/ml.
Series [33] in a line: Drug uptake in human MCF7 cells xenografted nude mouse tumor tissue in presence of BRD3 antibody by immunofluorescence analysis. The class given is ADME, Neoplasm. Particulars: in vivo.

Chain of Bromodomain-containing protein 3 (Homo sapiens) (Q15059 2-726 limits assumed): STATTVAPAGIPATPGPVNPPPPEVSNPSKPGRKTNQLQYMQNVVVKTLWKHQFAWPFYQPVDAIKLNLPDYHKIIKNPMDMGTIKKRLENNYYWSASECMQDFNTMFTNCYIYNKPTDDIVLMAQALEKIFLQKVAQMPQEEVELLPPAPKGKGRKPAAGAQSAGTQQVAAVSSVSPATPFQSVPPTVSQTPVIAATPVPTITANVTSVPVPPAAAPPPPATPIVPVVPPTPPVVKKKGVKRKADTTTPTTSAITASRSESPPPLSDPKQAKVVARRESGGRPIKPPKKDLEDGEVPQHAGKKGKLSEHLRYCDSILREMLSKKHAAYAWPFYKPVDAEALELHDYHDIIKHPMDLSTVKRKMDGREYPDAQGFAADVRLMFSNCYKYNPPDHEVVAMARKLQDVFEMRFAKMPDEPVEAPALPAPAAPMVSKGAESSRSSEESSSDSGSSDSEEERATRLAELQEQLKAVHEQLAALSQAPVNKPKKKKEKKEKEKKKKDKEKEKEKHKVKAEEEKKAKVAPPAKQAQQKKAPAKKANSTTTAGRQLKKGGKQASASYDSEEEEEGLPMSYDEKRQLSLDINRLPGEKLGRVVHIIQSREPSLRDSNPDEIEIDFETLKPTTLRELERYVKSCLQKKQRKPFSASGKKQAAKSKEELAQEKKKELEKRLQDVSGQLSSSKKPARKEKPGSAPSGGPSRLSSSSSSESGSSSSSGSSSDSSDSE

`Cc1sc2c(c1C)C(c1ccc(Cl)cc1)=N[C@@H](CC(=O)NCCCCCNS(=O)(=O)c1cccc3c(N(C)C)cccc13)c1nnc(C)n1-2`: the values for the Activity in series [1] and in series [4] were 350 nm and 495 nm, respectively. In addition, the Drug uptake result is reported as “Active” in series [2] and “Not Active” in series [3].
The inhibition is how much of the control response was suppressed. For the molecule `Cc1sc2c(c1C)C(c1ccc(Cl)cc1)=N[C@@H](CC(=O)OC(C)(C)C)c1nnc(C)n1-2`, the inhibition at 10 µM in the series on MCF7 [5] stood at 100%. For the same molecule, the outcome in the series with MCF7 [6], in the series on MCF7 [9], in the series on MCF7 [10] and with MCF7 [12] was Active. Besides, the Activity result with MCF7 [7] is “Tde”; in the series on MCF7 [8] it was “Dose-Dependent Effect”; with MCF7 [11] it was “Tde”; with MCF7 [13], “Dose-Dependent Effect”; with MCF7 [14], “Dose-Dependent Effect”; in the series with MCF7 [16], “Tde”. Besides, the inhibition entry in the series on MCF7 [15] is “Active”.
Take `Cc1sc2c(c1C)C(c1ccc(Cl)cc1)=N[C@@H](CC(=O)NCCCCNS(=O)(=O)c1cccc3c(N(C)C)cccc13)c1nnc(C)n1-2`: the Activity amounted to 350 nm in series [1] and 495 nm in [4]. For the same molecule, the Drug uptake entry in series [2] is on record as “Active”; in [3], “Not Active”.
In the case of `Cc1sc2c(c1C)C(c1ccc(Cl)cc1)=N[C@@H](CC(=O)NCCCNS(=O)(=O)c1cccc3c(N(C)C)cccc13)c1nnc(C)n1-2`, the Drug uptake entry is recorded as “Active” in series [17]; “Active” in series [18]; “Active” in series [20]; “Not Active” in [21]; “Active” in [22]; “Active” in [24]. Moreover, the Drug uptake result in series [2] was “Active”; in [27] it was “Active”; in [3] it was “Not Active”; in series [28], “Active”; in [29] it was “Active”; in series [30], “Active”. The results for the Drug uptake entry in series [31] and in series [33] were “Not Active” and “Active”, respectively. For the same molecule, in the series with MCF7 [5], the inhibition at 10 µM was determined as 100%. The result with MCF7 [6], in the series with MCF7 [19], with MCF7 [9], in the series on MCF7 [10] and in the series on MCF7 [12] was Active. Further, the Activity entry in the series on MCF7 [7] was “Tde”; in series [1], 350 nm; in series [23], “Dose-Dependent Effect”; in the series with MCF7 [8] it was “Dose-Dependent Effect”; with MCF7 [11], “Tde”; with MCF7 [13], “Dose-Dependent Effect”. The Activity result with MCF7 [14] is “Dose-Dependent Effect”; in series [4], 495 nm; in [32], “Dose-Dependent Effect”; with MCF7 [16] it was “Tde”. Besides, the outcome in series [25] and in series [26] was inactive. Also, in the series with MCF7 [15], the inhibition entry was “Active”.

For the origin of these results see ChEMBL document CHEMBL5620373, “Establishment of environment-sensitive probes targeting BRD3/BRD4 for imaging and therapy of tumor” (Eur J Med Chem, 2023).
